According to US20260048151A1, “HEMICYANINE PUSH-PULL DYES BASED ON CHROMENE ELECTRON DONORS” (UNIVERSITY OF CONNECTICUT, priority 2022, published 2026):
Several values for one entry are separate records, joined by “and”; a condition that tells them apart may be missing. Identical values can stand only once.

Test system: intact mouse hearts
Experiment: Optical mapping of cardiac electrical activity in isolated mouse hearts
Method: All animal handling and procedures were performed in accordance with the guidelines from Directive 2010/63/EU of the European Parliament on the protection of animals used for scientific purposes. The experimental protocol was approved by the Italian Ministry of Health (protocol number 944/2018-PR). Transgenic mice (ChR2-mhc6-cre+) with cardiomyocyte-specific expression of Channelrhodopsin-2 (ChR2, H134R variant) were generated and employed in this study. Wild-type mice (C57BL/6J) and ChR2-mhc6-cre+ mice (6 months old) were heparinized (0.1 mL at 5000 units/mL) and anesthetized by inhaled isoflurane (5%). The excised heart was immediately bathed in Krebs-Henseleit (KH) solution and cannulated through the aorta. The KH buffer contained (in mM): 120 NaCl, 5 KCl, 2 MgS2 O4-7H2O, 20 NaHCO3, 1.2 NaH2PO4—H2O, 1.8 CaCl2 and 10 glucose, pH 7.4 when equilibrated with carbogen. Cardiac contraction was inhibited during the entire experiment with 1 μM blebbistatin (Enzo Life Sciences, Farmingdale, NY, USA) in the solution. The cannulated heart was perfused through the aorta (using a horizontal-Langendorff perfusion system) with the KH solution and then transferred to a custom-built optical mapping chamber at a constant flow of 2.5 mL/min at (36±0.5)° C. Two platinum electrodes were placed below the heart for monitoring cardiac electrical activity via electrocardiogram (ECG). 1 mL of perfusion solution containing the voltage sensitive dye (VSD; ElectroFluor730p: 10 μM; di-4-ANBDQPQ: 6 μg/mL) was bolus injected into the aorta. All the experiments were performed at (36±0.5° C.) within 1 hour after dye loading to avoid potential re-distribution of the dye and accumulation of phototoxic by-products.
Optical mapping was performed using a custom-made mesoscope. Stained mouse hearts were illuminated in a wide-field configuration using a 2× objective (TL2x-SAP, Thorlabs, Newton, NJ, USA) and employing four different LED operating at a wavelength centred at 730 nm, 625 nm, 590 nm and 530 nm (M730L5, M625L3, M590L4 and M530L4 Thorlabs, Newton, NJ, USA) followed by excitation band-pass filters at 730/39 nm, 640/40 nm, 589/15 nm (FF01-730/39-25, FF01-640/40-25, FF01-589/15-25, Semrock) and 530/43 nm (MF530-43, Thorlabs) respectively. di-4-ANBDQPQ stained hearts were excited at 625 nm (0.875 mW/mm^2) and a dichroic beam splitter (FF685-Di02-25×36, Semrock) followed by a band-pass filter at 775/140 nm (FF01-775/140-25, Semrock) was used for collecting the emitted fluorescent signal. […] Light intensities were measured at sample site using a photodiode sensor (PD300-3W, Ophir Optronics, Jerusalem, Israel). […]

CCCCCCN(CCCCCC)c1ccc2c(c1)OCC(/C=C/c1c(F)c[n+](CCC[N+](CC)(CC)CC)c3ccccc13)=C2.[Br-].[Br-] [2c]
sensitivity to an AP (APA), % decrease in fluorescence at the peak of an AP (730 nm excitation, compared with di-4-ANBDQPQ): higher than that of di-4-ANBDQPQ | differences in AP kinetics (APRS, APD50, APD70, APD90) (compared with di-4-ANBDQPQ, student's t-test, listed as ElectroFluor730p): no statistically significant differences in AP parameters excepting AP Amplitude | inversion point (isosbestic point) of sensitivity (excitation 730, 590, 530 nm, exponential fit, listed as ElectroFluor730p): ≈ 571 nm and ~571 nm | pharmacological effects of the VSD (isolated mouse hearts): no measurable pharmacological effects
